Assay results reported in ChEMBL document CHEMBL4373714, “Absolute Configuration and Biological Activities of Meroterpenoids from an Endophytic Fungus of Lycium barbarum” (J Nat Prod, 2019).
In brackets after ≈: the same amount, converted by molar mass. Counter-ions that a name gives are not always drawn.

Tests used:
NCI-H226 [1] = assay: Antiproliferative activity against human NCI-H226 cells assessed as reduction in cell viability after 24 hrs by CCK8 assay; assay type: functional, cell-based; conditions: NCI-H226, 24 h
MDA-MB-231 [2] = assay: Antiproliferative activity against human MDA-MB-231 cells assessed as reduction in cell viability after 24 hrs by CCK8 assay; assay type: functional, cell-based; conditions: MDA-MB-231, 24 h
NCI-H226 [3] = assay: Antiproliferative activity against human NCI-H226 cells assessed as reduction in cell viability at 10 uM after 24 hrs by CCK8 assay relative to control; assay type: functional; conditions: NCI-H226, 24 h
MDA-MB-231 [4] = assay: Antiproliferative activity against human MDA-MB-231 cells assessed as reduction in cell viability at 10 uM after 24 hrs by CCK8 assay relative to control; assay type: functional; conditions: MDA-MB-231, 24 h
Bacillus subtilis = assay: Antibacterial activity against Bacillus subtilis assessed as inhibition of bacterial growth after 24 hrs by microdilution method; assay type: functional
Clostridium perfringens = assay: Antibacterial activity against Clostridium perfringens assessed as inhibition of bacterial growth after 24 hrs by microdilution method; assay type: functional
Pseudomonas viridiflava = assay: Antibacterial activity against Pseudomonas viridiflava assessed as inhibition of bacterial growth after 24 hrs by microdilution method; assay type: functional
Escherichia coli = assay: Antibacterial activity against Escherichia coli assessed as inhibition of bacterial growth after 24 hrs by microdilution method; assay type: functional
Staphylococcus aureus = assay: Antibacterial activity against Staphylococcus aureus assessed as inhibition of bacterial growth after 24 hrs by microdilution method; assay type: functional

SMILES	IC50 (NCI-H226 [1]) [µM]	IC50 (MDA-MB-231 [2]) [µM]	inhibition at 10 µM (NCI-H226 [3]) [%]	inhibition at 10 µM (MDA-MB-231 [4]) [%]	other results
COc1cccc2c1C(=O)c1c(O)c3c(c(O)c1C2=O)C[C@@](O)(C(=O)CO)C[C@@H]3O[C@H]1C[C@H](N)[C@H](O)[C@H](C)O1 [DOXORUBICIN HYDROCHLORIDE]	0.3	0.3	–	–	–
CC[C@H](C)[C@@H](OC(C)=O)[C@@H](C)c1cc(O)c2c(c1O)O[C@]1(C)CC[C@H]3O[C@@H](C(C)(C)O)CC[C@]3(C)[C@H]1C2=O [ISOCOCHLIOQUINONE A]	–	–	< 50	< 50	–
C/C=C(\C)C(=O)[C@@H](C)C1=C(OC)C(=O)C2=C(O[C@]3(C)CC[C@H]4O[C@@H](C(C)(C)O)CC[C@]4(C)[C@H]3[C@@H]2O)C1=O	> 10	7.5	–	–	–
CC[C@H](C)C(=O)[C@@H](C)C1=CC(=O)C2=C(O[C@]3(C)CC[C@H]4O[C@@H](C(C)(C)O)CC[C@]4(C)[C@H]3C2)C1=O [COCHLIOQUINONE B]	–	–	< 50	< 50	MIC (Bacillus subtilis): 26 µM (≈ 12.3 µg/mL); MIC (Clostridium perfringens): 26 µM (≈ 12.3 µg/mL); MIC (Pseudomonas viridiflava): 26 µM (≈ 12.3 µg/mL)
CC[C@@H](C)[C@@H](OC(C)=O)[C@@H](C)c1cc(O)c2c(c1O)O[C@]1(C)CC[C@H]3O[C@@H](C(C)(C)O)CC[C@]3(C)[C@H]1C2=O	–	–	< 50	< 50	–
CC[C@H](C)C(=O)[C@@H](C)C1=CC(=O)C2=C(O[C@]3(C)CC[C@H]4O[C@@H](C(C)(C)O)CC[C@]4(C)[C@H]3[C@@H]2O)C1=O [COCHLIOQUINONE C]	–	–	< 50	< 50	MIC (Bacillus subtilis): 26 µM (≈ 12.7 µg/mL); MIC (Clostridium perfringens): 26 µM (≈ 12.7 µg/mL); MIC (Pseudomonas viridiflava): 26 µM (≈ 12.7 µg/mL)
C/C=C(\C)C(=O)[C@@H](C)c1cc(O)c2c(c1O)O[C@]1(C)CC[C@H]3O[C@@H](C(C)(C)O)CC[C@]3(C)[C@H]1[C@@H]2O	5.5	6.7	–	–	–
CN(C)[C@@H]1C(O)=C(C(N)=O)C(=O)[C@@]2(O)C(O)=C3C(=O)c4c(O)cccc4[C@@](C)(O)[C@H]3C[C@@H]12 [TETRACYCLINE]	–	–	–	–	MIC (Bacillus subtilis): 3.5 µM (≈ 1.56 µg/mL); MIC (Clostridium perfringens): 3.5 µM (≈ 1.56 µg/mL); MIC (Pseudomonas viridiflava): 3.5 µM (≈ 1.56 µg/mL); MIC (Escherichia coli): 3.5 µM (≈ 1.56 µg/mL); MIC (Staphylococcus aureus): 3.5 µM (≈ 1.56 µg/mL)
CC[C@@H](C)C(=O)[C@@H](C)c1cc(O)c2c(c1O)O[C@]1(C)CC[C@H]3O[C@@H](C(C)(C)O)CC[C@]3(C)[C@H]1C2=O	–	–	< 50	< 50	–
CC[C@H](C)[C@@H](OC(C)=O)[C@@H](C)C1=C(N)C(=O)C2=C(O[C@]3(C)CC[C@H]4O[C@@H](C(C)(C)O)CC[C@]4(C)[C@H]3[C@@H]2O)C1=O	–	–	< 50	< 50	–
CC[C@H](C)C(=O)[C@@H](C)C1=C(OC)C(=O)C2=C(O[C@]3(C)CC[C@H]4O[C@@H](C(C)(C)O)CC[C@]4(C)[C@H]3C2)C1=O	–	–	< 50	< 50	–
C/C=C(\C)C(=O)[C@@H](C)C1=CC(=O)C2=C(O[C@]3(C)CC[C@H]4O[C@@H](C(C)(C)O)CC[C@]4(C)[C@H]3C2)C1=O [COCHLIOQUINONE D]	6.9	7.1	–	–	–
CC[C@H](C)C(=O)[C@@H](C)c1cc(O)c2c(c1O)O[C@]1(C)CC[C@H]3O[C@@H](C(C)(C)O)CC[C@]3(C)[C@H]1[C@@H]2O	–	–	< 50	< 50	–
CC[C@H](C)[C@@H](OC(C)=O)[C@@H](C)C1=CC(=O)C2=C(O[C@]3(C)CC[C@H]4O[C@@H](C(C)(C)O)CC[C@]4(C)[C@H]3[C@@H]2O)C1=O [COCHLIOQUINONE A]	–	–	< 50	< 50	–
CCC(C)C(=O)c1coc2c3c(c(O)cc12)[C@@H](O)[C@@H]1[C@@]2(C)CC[C@H](C(C)(C)O)O[C@@H]2CC[C@@]1(C)O3 (stereo not given in full)	–	–	< 50	< 50	–
C/C=C(\C)C(=O)[C@@H](C)C1=CC(=O)C2=C(O[C@]3(C)CC[C@H]4O[C@@H](C(C)(C)O)CC[C@]4(C)[C@H]3[C@@H]2O)C1=O	> 10	8.5	–	–	–
CC[C@H](C)C(=O)[C@@H](C)c1cc(O)c2c(c1O)O[C@]1(C)CC[C@H]3O[C@@H](C(C)(C)O)CC[C@]3(C)[C@H]1C2=O [ISOCOCHLIOQUINONE C]	–	–	< 50	< 50	MIC (Bacillus subtilis): 26 µM (≈ 12.7 µg/mL); MIC (Clostridium perfringens): 26 µM (≈ 12.7 µg/mL); MIC (Pseudomonas viridiflava): 26 µM (≈ 12.7 µg/mL)
C/C=C(\C)[C@@H](OC(C)=O)[C@@H](C)C1=CC(=O)C2=C(O[C@]3(C)CC[C@H]4O[C@@H](C(C)(C)O)CC[C@]4(C)C3=C2)C1=O	> 10	5.6	–	–	–
CC[C@H](C)C(=O)[C@@H](C)C1=C(OC)C(=O)C2=C(O[C@]3(C)CC[C@H]4O[C@@H](C(C)(C)O)CC[C@]4(C)[C@H]3[C@@H]2O)C1=O	> 10	9.5	–	–	–
